Results reported in patent US20080152641A1, “Inhibitors of Siderophore Biosynthesis in Fungi” (Autria Wirtschaftsservice, priority 2004, published 2008).
Square brackets hold non-standard residues; d marks the D form. Peptide text beside a SMILES is read from it. Orn(N5-OH,N5-Ac) = CC(=O)N(O)CCC[C@H](N)C(=O)O

Columns and labels:
Assay type in all cases: cell-based, Aspergillus fumigatus
ΔsidACEA17 [1] = assay: Conidia production of ΔsidACEA17; conditions: without supplement 99% decrease
Procedure: (§1) FIG. 3: A. Growth phenotypes of wild type and mutant strains. […] 10^4 conidia of the respective strain were point-inoculated on AMM plates containing the respective iron source, and incubated for 48 h at 37° C. Blood agar was AMM containing 5% sheep blood.
(§2) To elucidate the role of sidA a gene deletion mutant from CEA17 by replacement with pyrG was constructed (Weidner (1998), loc. cit.).

[2] = tested on: ΔAf-sidA, OMO-deficient A. fumigatus strain; assay: Radial growth of siderophore-negative ΔAf-sidA on Aspergillus minimal medium plates
Excerpt: As is described in the appended Examples below, to elucidate the function of Af-sidA, a deletion mutant for this gene was constructed. In the generated mutant allele of ΔAf-sidA, the entire coding region, 279 bp downstream and 137 bp upstream region of the gene was replaced by the hygromycine resistance (hph) marker. […] Consistent with reductive iron assimilation being responsible for the residual growth of ΔAf-sidA, the use of copper-deficient media or the addition of the copper-specific chelator bathocuproine disulfonic acid in a concentration of 30 μM decreased the radial growth rate of ΔAf-sidA 46% and 25% compared to the wt. The growth of ΔAf-sidA was increased to 84% and 99% by supplementation with 1.5 mM FeSO4 and 10 μM ferricrocin, respectively.
as §1

Δat2 = assay: Radial growth of Δat2 in the presence of BPS; conditions: iron depleted conditions, BPS 200 μM, radial growth at 48 h
Procedure: as §1
(§3) FIG. 12: Growth phenotypes of wild type and Δat1, ΔsidD and Δat2 mutant strains. Growth assays were performed during iron replete conditions (+Fe, 10 μM FeSO4), iron depleted conditions (−Fe), iron depleted conditions in the presence of bathophenantroline-disulfonate (BPS, 200 μM) and on blood agar (blood) as described in FIG. 3, radial growth was scored at 48 h.
(§4) Bathophenantroline-disulfonic acid is an inhibitor of the reductive iron assimilatory system and the iron contained in blood agar cannot be readily used by the reductive iron assimilatory system.

ΔsidD = assay: Radial growth of ΔsidD in the presence of BPS; conditions: iron depleted conditions, BPS 200 μM, radial growth at 48 h
Procedure: as §1, §3, §4

Δat1 = assay: Radial growth of Δat1 in the presence of BPS; conditions: iron depleted conditions, BPS 200 μM, radial growth at 48 h
Procedure: as §1, §3, §4

ΔsidACEA17 [3] = assay: Growth sensitivity of ΔsidACEA17 to ferrous iron chelator
Procedure: as §1, §2

ΔsidA/ΔftrACEA17 = assay: Growth of double mutant ΔsidA/ΔftrACEA17 on different iron sources; conditions: for growth promotion of ΔsidA/ΔftrACEA17: high amounts; for growth of ΔsidA/ΔftrACEA17 on host iron compound as sole iron source: 10 μM as the sole iron source
Procedure: 10^4 conidia of the respective strain were point-inoculated on AMM plates containing the respective iron source, and incubated for 48 h at 37° C. Blood agar was AMM containing 5% sheep blood.
To analyze the potential role of FtrA in iron uptake of A. fumigatus we deleted the encoding gene in ΔsidACEA17 by replacement with the hygromycin resistance (hph) marker (Punt (1987), loc. cit.).

With O=S(=O)([O-])[O-].[Fe+2] [FeSO4] the “conidia production of ΔsidACEA17” value (ΔsidACEA17 [1]; supplementation with 1.5 mM) was 35% and the “growth of ΔAf-sidA compared to the wt” value ([2]; supplementation with 1.5 mM) was 84%.
With Cc1cc(-c2ccc(S(=O)(=O)O)cc2)c2ccc3c(-c4ccc(S(=O)(=O)O)cc4)cc(C)nc3c2n1 [bathocuproine disulfonic acid] the “radial growth rate of ΔAf-sidA compared to the wt” value ([2]; addition of chelator at 30 μM) was 25%.
With O=S(=O)(O)c1ccc(-c2ccnc3c2ccc2c(-c4ccc(S(=O)(=O)O)cc4)ccnc23)cc1 [bathophenantroline disulfonate, bathophenanthroline disulfonic acid] the “growth rate of Δat2” value (Δat2) was “wild type growth rate”, the “growth rate of ΔsidD” value (ΔsidD) was “decreased growth rate” and the “growth rate of Δat1” value (Δat1) was “decreased growth rate”. The “sensitivity of ΔsidACEA17 to chelator” value (ΔsidACEA17 [3]) was “increased sensitivity” and the “growth of siderophore negative A fumigatus (FIG. 7)” value [2] was “Growth inhibition”.
For [Cl][Fe]([Cl])[Cl] [ferric iron], the “growth promotion of ΔsidA/ΔftrACEA17” value (ΔsidA/ΔftrACEA17) was “not”.
For CC(=O)N([O-])CCC[C@@H]1NC(=O)CNC(=O)[C@H](CO)NC(=O)CNC(=O)[C@H](CCCN([O-])C(C)=O)NC(=O)[C@H](CCCN([O-])C(C)=O)NC1=O.[Fe+3] [ferricrocin] (cyclo(GSG[Orn(N5-OH,N5-Ac)][Orn(N5-OH,N5-Ac)][Orn(N5-OH,N5-Ac)])), the “growth of ΔsidA/ΔftrACEA17 with siderophore in growth medium” value (ΔsidA/ΔftrACEA17) was “unable to grow unless the growth medium contained ferricrocin”, the “conidia production of ΔsidACEA17” value (ΔsidACEA17 [1]; supplementation with 10 μM) was 125% and the “antagonism of growth inhibition by BPS and blood (FIG. 7)” value [2] was “antagonist action”. For the same molecule, the “growth of ΔAf-sidA compared to the wt” value ([2]; supplementation with 10 μM) was 99%.
With [Fe+2] [ferrous iron] the “growth promotion of ΔsidA/ΔftrACEA17” value (ΔsidA/ΔftrACEA17) was “slight growth promotion”.
For hemin, the “growth of ΔsidA/ΔftrACEA17 on host iron compound as sole iron source” value (ΔsidA/ΔftrACEA17) was “failed to grow”.
With “holotransferrin: host iron compound tested as sole iron source” the “growth of ΔsidA/ΔftrACEA17 on host iron compound as sole iron source” value (ΔsidA/ΔftrACEA17) was “failed to grow”.
In the case of iron chloride, the “conidia production of ΔsidACEA17” value (ΔsidACEA17 [1]; supplementation with 1.5 mM) is reported as 35%.
